Consider 25 compounds from PubChem BioAssay AID844 (SRMLSC, 2007).

As a reminder, the EC50 is the concentration at which the effect is half-maximal.

The test system of the assay is MRP1 cells, doxorubicin viability shift, 10 uM compound. In words: doxorubicin EC50 increase in MRP-1 cells, dose response, cell-based, doxorubicin EC50 shift (AID 844). Conditions: for EC50: measured here: doxorubicin EC50 with compound.

Molecules are shown by their SMILES. The source made the active and inactive calls. The rule behind the calls is not given here.

For the compound `O=C(CSc1nc2ccccc2o1)NCc1ccc2c(c1)OCO2`, the fold increase in Dox EC50 was 1.15 (inactive) and the EC50 is 6.23 µM.

With `C=CCc1c(C)nc(-c2ccccc2)nc1N/N=C/c1ccccc1`, the fold increase in Dox EC50 was 0.87 (inactive) and the EC50 came out at 4.7 µM.

As to `CNC(=S)Nc1ccc(C23CC4CC(CC(C4)C2)C3)cc1`, the fold increase in Dox EC50 is 0.7 (inactive) and the concentration for a half-maximal effect (EC50) was 3.78 µM.

In the case of `Cc1cccc2c3nc4ccccc4nc3n(CCCN3C(=O)c4ccccc4C3=O)c12`, the fold increase in Dox EC50 was 0.13 (inactive) and the EC50 came out at 0.717 µM.

With `N#CCSc1n[nH]c2nc3c(c(=O)n12)C1(CCCC1)Cc1ccccc1-3`, the fold increase in Dox EC50 is 0.46 (inactive) and the EC50 was 2.49 µM.

For `Cc1ccc2c(C)nc(/N=C(\N)NC(=O)N3c4ccccc4Sc4ccccc43)nc2c1`, the fold increase in Dox EC50 is 1.38 (inactive) and the EC50 was found to be 7.48 µM.

Regarding `CCc1noc(C)c1C(=O)Nc1nc(-c2cc(C)ccc2C)c(C)s1`, the fold increase in Dox EC50 was 0.83 (inactive) and the EC50 amounted to 4.48 µM.

For `Cc1nc(NC(=S)NC(=O)c2ccccc2)sc1C(=O)N(C)C`, the fold increase in Dox EC50 was 1.24 (inactive) and the EC50 is 6.71 µM.

Turning to `COc1ccc(OC)c(-c2csc(NC(=O)C3c4ccccc4Oc4ccccc43)n2)c1`, the fold increase in Dox EC50 was 0.96 (inactive) and the EC50 worked out at 5.16 µM.

Regarding `CCOc1cc(/C=C2\SC(=Nc3ccccc3)N(c3ccccc3)C2=O)ccc1OCC(=O)O`, the fold increase in Dox EC50 is 0.94 (inactive) and the EC50 is 5.09 µM.

As for `O=C(O)c1ccc(N/N=C/c2ccc(F)c(F)c2)cc1`, the fold increase in Dox EC50 is 1.31 (inactive) and the EC50 was 7.07 µM.

For the compound `O=C(CC(Nc1ccc(F)cc1)C(=O)OCC(=O)c1cccs1)c1ccccc1` (stereo not given), the fold increase in Dox EC50 was 0.69 (inactive) and the EC50 turned out to be 3.73 µM.

Consider `Oc1c(C(c2cccs2)N2CCN(c3cccc(Cl)c3)CC2)sc2ncnn12` (stereo not given), for which the fold increase in Dox EC50 is 0.68 (inactive) and the EC50 is 3.68 µM.

As to `COC(=O)CCc1c(C)[nH]c(C(=O)OCc2ccccc2)c1C`, the fold increase in Dox EC50 was 0.85 (inactive) and the concentration for a half-maximal effect (EC50) stood at 4.57 µM.

As for `C=CCOC(=O)C(C#N)c1nc2ccccc2nc1N1CCN(c2ccccc2OCC)CC1` (stereo not given), the fold increase in Dox EC50 was 0.56 (inactive) and the EC50 came out at 3.05 µM.

Turning to `c1ccc2c(c1)Nc1nccnc1S2`, the fold increase in Dox EC50 was 0.12 (inactive) and the EC50 came out at 0.637 µM.

On to `Cc1onc(-c2c(F)cccc2Cl)c1C(=O)Nc1sc2c(c1C#N)CCC(C(C)(C)C)C2` (stereo not given), for which the fold increase in Dox EC50 was 0.48 (inactive) and the EC50 is 2.61 µM.

Take `Cn1c(N)c(C(=O)COC(=O)c2cc(C3CC3)nc3ccccc23)c(=O)n(Cc2ccccc2)c1=O`: the fold increase in Dox EC50 is 0.94 (inactive) and the EC50 worked out at 5.07 µM.

Consider `Cc1cc(C)cc(-c2nc(-c3ccncc3)no2)c1`, for which the fold increase in Dox EC50 was 0.77 (inactive) and the EC50 is 4.13 µM.

On to `O=C(CC1SC(=O)N(Cc2ccccc2)C1=O)Nc1nccs1` (stereo not given), for which the fold increase in Dox EC50 is 1.82 and the EC50 was 9.84 µM.

In the case of `COc1ccc(OC)c(NC(=O)CSc2nnc(CNC(=O)COc3ccc(Cl)cc3)o2)c1`, the fold increase in Dox EC50 was 1.11 (inactive) and the EC50 was found to be 5.98 µM.

In the case of `N#Cc1nc(COc2ccc(Br)cc2)oc1N1CCCC1`, the fold increase in Dox EC50 was 1.26 (inactive) and the EC50 came to 6.8 µM.

`CC(C)Oc1ccc(CSC(=N)N)cc1`: the fold increase in Dox EC50 is 0.89 (inactive) and the EC50 came out at 4.81 µM.

In the case of `CSc1ncc(Cl)c(C(=O)Nc2nnc(SC)s2)n1`, the fold increase in Dox EC50 was 1.12 (inactive) and the EC50 was 6.07 µM.

Regarding `COc1ccc(CNc2nc(NCc3ccc(OC)cc3)n(S(C)(=O)=O)n2)cc1`, the fold increase in Dox EC50 was 1.07 (inactive) and the EC50 stood at 5.78 µM.
